From US20080113900A1, “Pharmaceutical compositions and therapeutic applications for the use of a synthetic vitamin B12 derivative, glutathionylcobalamin” (priority 2006, published 2008)

Tested on: SK-HEP-1 cells
Assay: Protection from homocysteine-induced apoptosis, Caspase-3 activity (apoptosis assay)
Format: cell-based, human
Details: 30 μM two hours, then 30 μM homocysteine two hours
Experimental: Caspase 3 is activated when cells undergo apoptosis. Caspase-3 assay is a standard for apoptosis assay. Homocysteine is a known inducer of apoptosis. Cells were cultured in 96-well plates for 24 hours and then treated with reagents under test conditions. Cytotoxic agents, H2O2 and etoposide were added to negative control wells. The assay was performed according to the manufacturer's protocol, as follows: Cells were re-suspended in 100 μl of clear media and 50 μl of Caspase-3 substrate solution was immediately added to each test well. […] Cell viability was determined by MTS® assay. […] Cell viability was determined by MTS® assay.

SMILES: CC(=O)NC(C[S-])C(=O)O.CC1=C2N=C(C=C3N=C(C(C)=C4[N-]C(C(CC(N)=O)C4(C)CCC(=O)NCC(C)OP(=O)([O-])OC4C(CO)OC(n5cnc6cc(C)c(C)cc65)C4O)C4(C)N=C1C(CCC(N)=O)C4(C)CC(N)=O)C(CCC(N)=O)C3(C)C)C(CCC(N)=O)C2(C)CC(N)=O.[Co+3] [NACCbl, N-acetyl-L-cysteinylcobalamin]
- Protection against apoptosis induced by homocysteine: total protection
